According to US7959691B2, “Composition” (Innospec Deutschland GmbH, priority 2009, dated 2011):
Marks after values point to notes of the source that are not given here.

Experiments:
[1] = Solubility in Isopar L at −30° C. during 120 hours, X-ray fluorescence (Example 4); type: physicochemical; conditions: nominal 5 wt % iron; for Solubility (% m/m Fe): 0.02 μm filtration
Experimental: The solubility of the isolated samples was determined in Isopar L solvent. For the isolated samples of compounds 7 and 8 the C/H/N analysis was used to indicate the iron content. For compounds 9 and 10 the theoretical iron content was assumed. Solutions were then prepared, at ambient temperatures or with slight warming as required, to a nominal iron content 5 wt % The samples were then sealed and immersed in a bath of ethylene glycol/water cooled and thermostatted to −30° C. during 120 hours.
The samples were then individually removed from the bath, taken up into a 10 cm^3 syringe then discharged to a second vial with filtration via a Whatman Anotop 25 0.02 μm in-line filter with Luer hub. Iron contents were then determined by X-ray fluorescence spectroscopy in an Oxford Instruments ED2000 Ag analyser. The analyser was calibrated against standards of ferrocene in toluene at iron concentrations of 0.5 through 3.0 wt % by 0.5 wt % intervals and against ferrocene in Isopar L 0.5 and 1.0 wt % (approximate ambient temperature solubility limit). Where required, dilution of sample materials was employed to bring the concentration within the range of the calibration.

[2] = Iron content of Isopar L solutions stored at −30° C. (Example 2); type: physicochemical; conditions: for Iron content of Isopar L solutions at −30° C.: 5 wt % iron solutions in Isopar L stored at −30° C. at least one week, filtered, X-ray spectroscopy; for Iron content of Isopar L solutions at −30° C., purified sample: as E8, sample first purified by dissolving in minimum heptane, recrystallising out ferrocene, filtration, solvent removal
Experimental: The solubilities of the products of the above reactions were determined on a weight percent iron basis. […] Solutions at 5 wt % iron in Isopar L were prepared on this basis, sealed into vials and stored at −30° C. during at least one week.

[3] = Excerpt: Solubility testing was undertaken using the estimate of Fe content from C/H/N analysis. […] This procedure assumes the products below to contain substantially only C, H and Fe. Masses of product(s) sufficient to provide the required concentration of iron as condensation products were weighed into screw-cap vials and made up to 10.00 g with toluene. The samples were capped, shaken or swirled until homogenous then sealed using Parafilm™. The vials were then kept in an ethylene glycol/water filled bath held at −30° C. and periodically inspected for the appearance of solids or separation of liquid phases. After at least one week solids were separated by rapid filtration and soluble products isolated by removal of solvent under vacuum.
Following analysis of the solids, maximum and minimum solubilities were estimated from the mass balance.

[4] = Viscosity of 2.5 wt % iron solutions in toluene (Bohlin CVO rheometer); type: physicochemical; conditions: toluene solution at 2.5 wt % Fe
Experimental: Viscosities of 2.5 wt % iron solutions were determined using a Bohlin Instruments CVO rheometer using a 4° 40 mm cone and plate at shear rates of either 2 Pa or 0.5 Pa.

**Q.** For “1,1-bis(butylferrocenyl)pentane [Compound 10]”, which Appearance/ease of filtration [1] is on record?
**A.** The Appearance/ease of filtration was “Clear, but hard to filter”.

**Q.** And the “Solubility (% m/m Fe)” value [1]?
**A.** Its value is 4.8 % m/m Fe.

**Q.** Which results are given for “1,1-bis(ethylferrocenyl)pentane [Compound 9]”?
**A.** Appearance/ease of filtration [1]: Clear, filters well; Solubility (% m/m Fe) [1]: 5.0 % m/m Fe

**Q.** For 1,1-bis-(ferrocenyl)-decane, which “Iron content of Isopar L solutions at −30° C.” value [2] is on record?
**A.** The value was 4.41 wt %.

**Q.** Which “Iron content of Isopar L solutions at −30° C.” value [2] does the source give for 1,1-bis-(ferrocenyl)-heptane here?
**A.** The value was 4.05 wt %.

**Q.** What does the source list for 1,1-bis-(ferrocenyl)-hexane?
**A.** Iron content of Isopar L solutions at −30° C. [2]: 3.99 wt %; Iron content of Isopar L solutions at −30° C., purified sample [2]: 4.89* wt %

**Q.** With 1,1-bis-(ferrocenyl)-nonane as the molecule, how does the “Iron content of Isopar L solutions at −30° C.” value [2] read?
**A.** The value was 4.96 wt %.

**Q.** Which results are given for 1,1-bis-(ferrocenyl)-octane?
**A.** Iron content of Isopar L solutions at −30° C. [2]: 4.60 wt %; Iron content of Isopar L solutions at −30° C., purified sample [2]: 4.88* wt %

**Q.** With 1,1-diferrocenylpentane [Compound 4] as the molecule, how does the “Solubility in Toluene at −30° C., 2.5 wt % Fe” value (from here on “Solubility … 2.5 wt % Fe”) [3] read?
**A.** The value was “Clear”.

**Q.** What about the “Solubility in Toluene at −30° C., 5.0 wt % Fe” value (“Solubility … 5.0 wt % Fe” for short) [3] of the same molecule?
**A.** The value was “Clear”.

**Q.** And the “Viscosity at −30° C.” value [4]?
**A.** The value was 5.4 mPas.

**Q.** Which “Iron content of Isopar L solutions at −30° C.” value [2] does the source give for 2,2-bis-(ferrocenyl)-heptane here?
**A.** The value was 3.29 wt %.

**Q.** With 2,2-bis-(ferrocenyl)-octane as the molecule, how does the “Iron content of Isopar L solutions at −30° C.” value [2] read?
**A.** Its value is 2.72 wt %.

**Q.** With 2,2-bis-(ferrocenyl)-pentane as the molecule, how does the “Iron content of Isopar L solutions at −30° C.” value [2] read?
**A.** The value was 2.62 wt %.

**Q.** Which “Iron content of Isopar L solutions at −30° C.” value [2] does the source give for 3,3-bis-(ferrocenyl)-butyl acetate here?
**A.** Its value is 2.30 wt %.

**Q.** Which “Iron content of Isopar L solutions at −30° C.” value [2] does the source give for 3,3-bis-(ferrocenyl)-hexane here?
**A.** Its value is 1.38 wt %.

**Q.** For 3,3-bis-(ferrocenyl)-pentane, which “Iron content of Isopar L solutions at −30° C.” value [2] is on record?
**A.** Its value is 1.71 wt %.

**Q.** Which “Solubility … 2.5 wt % Fe” value [3] does the source give for `CCCCC(C=O)CC` (centres unmarked) [Compound 1, 2-Ethylhexanal] here?
**A.** Its value is “Clear”.

**Q.** What about the “Solubility … 5.0 wt % Fe” value [3] of the same molecule?
**A.** The value was “Clear”.

**Q.** What about the “solubility limit in toluene” value [3] of the same molecule?
**A.** Its value is “less than 3.2 wt %”.

**Q.** What about the “Viscosity at −30° C.” value [4] of the same molecule?
**A.** The value was 5.1 to 6.4 mPas.

**Q.** Which “Solubility … 2.5 wt % Fe” value [3] does the source give for `CC(=O)CCC(C)=O` [Compound 2, Acetonyl acetone] here?
**A.** The value was “Powder”.

**Q.** And the “Solubility … 5.0 wt % Fe” value [3]?
**A.** Its value is “Powder”.

**Q.** For `CCCC(=O)CCC` [Compound 3, Heptan-4-one], which “Solubility … 2.5 wt % Fe” value [3] is on record?
**A.** Its value is “Clear”.

**Q.** And the “Solubility … 5.0 wt % Fe” value [3]?
**A.** Its value is “Solids”.

**Q.** What about the “Viscosity at −30° C.” value [4] of the same molecule?
**A.** Its value is 5.1 mPas.
